In article PMC11352108, “Anti-Biofilm and Anti-Inflammatory Properties of the Truncated Analogs of the Scorpion Venom-Derived Peptide IsCT against Pseudomonas aeruginosa” (Antibiotics, 2024):
Where no end group is shown, it is not given here.

Experiments:
sheep red blood cells = assay: Hemolytic assay; assay type: cell-based; settings: for Hemolytic activity (in words): sheep erythrocytes, concentrations as high as 150 μM; for % Hemolysis, Exp.1: replicate Exp.1; for % Hemolysis, Exp.2: replicate Exp.2; for % Hemolysis, Exp.3: replicate Exp.3
Procedure: A hemolytic assay was carried out according to the previously described method using commercially sourced sheep red blood cells (Professional Nanomed Company Limited, Bangkok, Thailand). One hundred microliters of a 2% sheep red blood cell suspension prepared in phosphate-buffered saline (PBS) pH 7.4. was incubated for 1 h at 37 °C with 100 μL of the studied peptides (final concentration of 150 µM). After centrifugation at 1000× g for 5 min, 100 μL of supernatant was transferred to new 96-well plates, and the release of hemoglobin was monitored, measuring an optical density (OD) at 405 nm using a BioTek Synergy HT microplate reader. Red blood cells treated with PBS pH 7.4 were used as a negative control, while those treated with 1% Triton X-100 were used as a positive control. The percent hemolysis was calculated as follows:(1) % Hemolysis=OD405 nm of the test peptide−OD405 nm of negative control/OD405 nm of positive control−OD405 nm of negative control × 100

[1] = tested on: P. aeruginosa PAO1 biofilms; assay: Biofilm susceptibility assay (crystal violet); assay type: cell-based, Pseudomonas aeruginosa; settings: 150 μM, 24 h, 37 °C; for Decrease in P. aeruginosa biofilm biomass: 10^6 CFU/mL, OD 550 nm, compared with untreated control
Procedure: The effect of the truncated IsCT analogs on biofilms of P. aeruginosa was assessed using a method that was described previously. Briefly, 100 μL of the test peptides (final concentration, 150 μM) was added to each well of a 96-well microtiter plate (Nunc^TM, Roskilde, Denmark). Then, an aliquot of P. aeruginosa PAO1 culture was added to each well to obtain a final concentration of 10^6 CFU/mL. The bacterial culture alone was included as an untreated control. Following a 24-h incubation at 37 °C, unattached planktonic cells were discarded, and the wells were carefully washed twice with PBS with a pH of 7.4. Thereafter, biofilm biomasses were quantified by 0.1% crystal violet staining. After excess stains were discarded, the wells were washed with PBS pH 7.4 and left to air dry for 2 h at 37 °C. The biofilm biomass was subsequently dissolved by the addition of 30% acetic acid, and the plates were spectrophotometrically read at 550 nm using a BioTek Synergy HT microplate reader.

P. aeruginosa biofilm = settings: at 4 μM; cited from earlier work
Description: We next determined the anti-biofilm potentials of the truncated IsCT analogs against biofilms formation of P. aeruginosa. […] Antibacterials with growth-inhibitory activity may accelerate the evolutionary pressure and ultimately lead to troublesome antibiotic resistance.

[2] = sheep red blood cells, 1 h, 37 °C, peptides 150 μM (Triton X-100 1%)

Row | Substance | Hemolytic activity (in words) (sheep red blood cells) | % Hemolysis, Exp.1 (sheep red blood cells; [2]) [%] | % Hemolysis, Exp.2 (sheep red blood cells; [2]) [%] | % Hemolysis, Exp.3 (sheep red blood cells; [2]) [%] | Anti-biofilm activity (in words) [1] | Decrease in P. aeruginosa biofilm biomass [1] [%] | Inhibition of P. aeruginosa biofilm production (P. aeruginosa biofilm) [%] | % Hemolysis (sheep red blood cells; 2% sheep red blood cells in PBS pH 7.4, 1 h, 37 °C, peptides 150 μM (Triton X-100 1%, positive control), OD 405 nm, mean ± SEM of independent experiments) [%] | % Hemolysis, Mean (sheep red blood cells; sheep red blood cells, 1 h, 37 °C, peptides 150 μM (Triton X-100 1%), mean of 3 experiments (supplement)) [%]
1 | ILGKIWKSLF [IsCT-Δ7-9] | decreased hemolytic activity | 0.18 | 0.00 | 1.13 | less pronounced | – | – | – | –
2 | ILGKIGIKSLF [IsCT-Δ6-7] | decreased hemolytic activity | 0.00 | 0.0473 | 2.44 | – | 28.27 | – | – | –
3 | β-defensin 2: an AMP, human beta-defensin 2 (GIGDPVTCLKSGAICHPVFCPRRYKQIGTCGLPGTKCCKKP; ends and bridges not checked; cysteine pairing not given here; UniProt O15263 24-64, looked up) | – | – | – | – | – | – | 40 | – | –
4 | ILGKIKSLF [IsCT-Δ6-9] | decreased hemolytic activity | 0.38 | 0.00 | 1.03 | – | 26.45 | – | – | –
5 | ILGKIWIKSLF [IsCT-Δ7-8] | decreased hemolytic activity | 0.25 | 2.48 | 3.66 | less pronounced | – | – | – | –
6 | Triton X-100 [reference compound] | – | 100.00 | 100.00 | 100.00 | – | – | – | 100.00 ± 0.00 | 100.00
